We go through 1 compound from patent publication US11952361B1, “2-(1-(3-(dimethylamino)propyl)-4,5-diphenyl-1H-imidazol-2-yl) pyridin-3-ol as an antitumor and antimicrobial compound” (KING FAISAL UNIVERSITY, priority 2023, dated 2024).

One may read the melting point as the temperature, or range, at which the solid turns liquid.

Data set [1] concerns human prostate cancer cells (PC3). In words: Cytotoxicity by SRB assay, PC3 cells. In kind it is cell-based. The settings on record: 0.01 μM to 100 μM, 72 h. On the procedure: (§1) The human prostate cancer cells (PC3) and human osteosarcoma cells (MG-63) were obtained from Nawah Scientific Inc. (Mokatam, Cairo, Egypt) and cultured in DMEM (Dulbecco's modified eagle's medium), Gibco, USA, supplemented with fetal bovine serum (FBS) at a concentration of 10% and […]. of penicillin and streptomycin (PS). The Cells were incubated at 37° C. in a humidified environment that contained 5% CO2.
(§2) Cells were seeded in 96-well plates as aliquots of 100 μL cell suspension and incubated in a complete media for 24 h. afterward, cells were treated with 2-(1-(3-(Dimethylanino)propyl)-4,5-diphenyl-1H-imidazol-2-yl)pyridin-3-ol at diverse concentrations ranging from 0.01 μM to 100 μM for 72 h. Then, cells were fixed at 4° C. for one hour with 150 μL of 10% trichloroacetic acid (TCA). After washing the cells five times with distilled water, 70 μL of sulforhodamine (SRB) solution (0.4% w/v) was added and incubated for 10 min at room temperature in a dark place. […] Then, 150 μL of Tris pH 10.5 (10 mM) was added, and the absorbance was measured at 540 nm using a BMG LABTECH®-FiLJOstar Omega microplate reader (Ortenberg, Germany). Half maximal inhibitory concentrations (IC50) values were calculated for each experiment using GraphPad Prism 6 software. […]
(§3) The inhibition was calculated using the following equation: Inhibition %=100−Average Viability
(Sulforhodamine B stains cellular protein and so reports cell mass.)

Data set [2] deals with human osteosarcoma cells (MG-63). In words: Cytotoxicity by SRB assay, MG-63 cells. In kind it is cell-based. As to conditions: 0.01 μM to 100 μM, 72 h. As for the experimental part:
as §1, §2, §3

The structures appear in SMILES notation.

For `CN(C)CCCn1c(-c2ncccc2O)nc(-c2ccccc2)c1-c1ccccc1` [2-(1-(3-(Dimethylamino)propyl)-4,5-diphenyl-1H-imidazol-2-yl)pyridin-3-ol], the melting point lay within 133 to 135 °C. The antiproliferative activity result in data set [1] is “excellent antiproliferative activities”. Further, in data set [2], the antiproliferative activity entry was “excellent antiproliferative activities”.
